How the values were obtained:
Details in all cases: 72 h
HL-60 [1] = experiment: cell viability (% survival relative to DMSO control, bortezomib = 0%); higher = less cytotoxic
Procedure, shortened: (§1)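 Fifteen myeloid leukaemia cell lines (10 AML, 5 CML) were seeded at a density titrated to the linear growth range. They went into 384-well plates with compounds pre-printed at 1, 10, 100, 1000 or 10000 nM in duplicate. After 72 h at 37 °C with 5% CO2, viability was read by CellTiter-Glo luminescence. Values are percent survival, with vehicle set to 100% and a 10 µM positive control to 0%, averaged over the duplicates.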

MOLM-13 [2] = experiment: as above
Procedure, shortened: as §1

KG-1 [3] = experiment: as above
Procedure, shortened: as §1

KCL-22 [4] = experiment: as above
Procedure, shortened: as §1

SHI-1 [5] = experiment: as above
Procedure, shortened: as §1

K-562 [6] = experiment: as above
Procedure, shortened: as §1

HEL [7] = experiment: as above
Procedure, shortened: as §1

ML-2 [8] = experiment: as above
Procedure, shortened: as §1

KU-812 [9] = experiment: as above
Procedure, shortened: as §1

BV-173 [10] = experiment: as above
Procedure, shortened: as §1

Mono-Mac-6 [11] = experiment: as above
Procedure, shortened: as §1

THP-1 [12] = experiment: as above
Procedure, shortened: as §1

HL-60 [13] = experiment: cell viability (% survival relative to DMSO control); higher = less cytotoxic
Procedure, shortened: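 A rescreen of the full library used HL-60 cells in RPMI 1640 with 10% FBS on 384-well plates, run in duplicate at five tenfold concentrations (1–10,000 nM). Each screen included DMSO or 100 nM of one of three metabolic inhibitors and ran 72 h at 37 °C, 5% CO2. CellTiter-Glo viability was scaled between DMSO and 10 μM proteasome-inhibitor wells. Any area under the curve comes from four-parameter log-logistic fits with drc and PharmacoGx.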

HL-60 [14] = test system: HL-60
Procedure, shortened: (§2)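 Fifteen myeloid leukaemia lines in RPMI 1640 were treated for 72 h at 37 °C and 5% CO2 with five tenfold doses from 1 to 10,000 nM, in duplicate. ATP luminescence was normalised to vehicle and to a positive control at 10 µM, then fitted with a four-parameter log-logistic model. The IC50 came from these fits.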

NOMO-1 = test system: NOMO-1
Procedure, shortened: as §2

MOLM-13 [15] = test system: MOLM-13
Procedure, shortened: as §2

KG-1 [16] = test system: KG-1
Procedure, shortened: as §2

KCL-22 [17] = test system: KCL-22
Procedure, shortened: as §2

LAMA-84 = test system: LAMA-84
Procedure, shortened: as §2

SHI-1 [18] = test system: SHI-1
Procedure, shortened: as §2

K-562 [19] = test system: K-562
Procedure, shortened: as §2

HEL [20] = test system: HEL
Procedure, shortened: as §2

MV4-11 = test system: MV4-11
Procedure, shortened: as §2

ML-2 [21] = test system: ML-2
Procedure, shortened: as §2

KU-812 [22] = test system: KU-812
Procedure, shortened: as §2

BV-173 [23] = test system: BV-173
Procedure, shortened: as §2

Mono-Mac-6 [24] = test system: Mono-Mac-6
Procedure, shortened: as §2

THP-1 [25] = test system: THP-1
Procedure, shortened: as §2

OC[C@H]1NC[C@H](O)[C@@H](O)[C@@H]1O [Duvoglustat]
cell viability [%]
Details	1 nM	10 nM	100 nM	1000 nM	10000 nM
BV-173 [10]	96.5	85.3	104	75.6	96.5
HEL [7]	94.5	122	99.8	94.4	103
HL-60 [1]	90.1	180	113	81	125
K-562 [6]	90.3	94.7	100	88.2	105
KCL-22 [4]	90.5	120	107	87	104
KG-1 [3]	96.4	111	108	87.3	101
KU-812 [9]	84.9	99.8	92.5	94.5	103
ML-2 [8]	95.4	121	117	84.9	106
MOLM-13 [2]	79.3	127	104	83.3	102
Mono-Mac-6 [11]	102	107	105	78.9	104
SHI-1 [5]	103	121	109	88	108
THP-1 [12]	96.6	92.3	109	84.6	101

cell viability [%], HL-60 [13]
Details	0.001 µM	0.01 µM	0.1 µM	1 µM	10 µM
co-treatment: AZD3965 100 nM	96.9	99.7	96.3	96.5	94
co-treatment: DMSO vehicle	99.3	95.3	102	102	101.5
co-treatment: GSK2194069 100 nM	97.4	92.82	107	105	95.8
co-treatment: pictilisib 100 nM	97.9	108	108	109	106

Details	IC50 (cell viability) [µM]
BV-173 [23]	> 10
HEL [20]	> 10
HL-60 [14]	> 10
K-562 [19]	> 10
KCL-22 [17]	> 10
KG-1 [16]	> 10
KU-812 [22]	> 10
LAMA-84	> 10
ML-2 [21]	> 10
MOLM-13 [15]	> 10
MV4-11	> 10
Mono-Mac-6 [24]	> 10
NOMO-1	> 10
SHI-1 [18]	> 10
THP-1 [25]	> 10

CO[C@H]1C[C@@H]2CC[C@@H](C)[C@@](O)(O2)C(=O)C(=O)N2CCCC[C@H]2C(=O)O[C@H]([C@H](C)C[C@@H]2CC[C@@H](OCCO)[C@H](OC)C2)CC(=O)[C@H](C)/C=C(\C)[C@@H](O)[C@@H](OC)C(=O)[C@H](C)C[C@H](C)/C=C/C=C/C=C/1C [Everolimus]
cell viability [%]
Details	1 nM	10 nM	100 nM	1000 nM	10000 nM
BV-173 [10]	79.3	51.9	56	43.6	34.3
HEL [7]	94.9	65.6	67	62.3	58.5
HL-60 [1]	91.4	75.6	86.3	54.9	43
K-562 [6]	71	50.4	48.8	44.5	30.6
KCL-22 [4]	66	44.6	36.2	33.8	24.6
KG-1 [3]	54.3	45.1	41	37.3	30.5
KU-812 [9]	58.5	44.9	44.8	39.4	36
ML-2 [8]	88.7	77.3	66.6	58.6	33.8
MOLM-13 [2]	49	38.1	48.3	29.7	34.6
Mono-Mac-6 [11]	74.2	46.4	53.1	40.7	44.2
SHI-1 [5]	81.8	60.4	65.8	56.7	55.7
THP-1 [12]	83.8	67.5	66.9	59.8	58.9

cell viability [%], HL-60 [13]
Details	0.001 µM	0.01 µM	0.1 µM	1 µM	10 µM
co-treatment: AZD3965 100 nM	100	95.63	97.03	93.2	83.2
co-treatment: DMSO vehicle	84.2	90.5	93.85	98.3	93.8
co-treatment: GSK2194069 100 nM	85.1	88.9	97.9	110.7	88.4
co-treatment: pictilisib 100 nM	78.7	88.7	87.9	89.2	72.1

Details	IC50 (cell viability) [µM]
BV-173 [23]	0.00411
HEL [20]	0.00274
HL-60 [14]	3.92
K-562 [19]	0.00342
KCL-22 [17]	0.00121
KG-1 [16]	< 0.001
KU-812 [22]	< 0.001
LAMA-84	0.782
ML-2 [21]	1.53
MOLM-13 [15]	< 0.001
MV4-11	0.248
Mono-Mac-6 [24]	0.00104
NOMO-1	0.0225
SHI-1 [18]	0.00115
THP-1 [25]	0.00165

O=C(NCCN1CCC(n2c(O)nc3ccccc32)CC1)c1cc2cc(F)ccc2[nH]1 [FIPI]
cell viability [%]
Details	1 nM	10 nM	100 nM	1000 nM	10000 nM
BV-173 [10]	96.9	101	99.9	99.3	58.9
HEL [7]	99.1	99.8	101	104	82.5
HL-60 [1]	105	103	112	97.7	92.2
K-562 [6]	99.1	106	108	101	27.3
KCL-22 [4]	100	98	91.1	94.9	67.7
KG-1 [3]	101	92.4	103	91.2	65.1
KU-812 [9]	104	92.9	105	106	66.2
ML-2 [8]	96.3	98.6	107	110	75.8
MOLM-13 [2]	79.6	104	98.9	95.4	69
Mono-Mac-6 [11]	104	107	106	70.6	64.5
SHI-1 [5]	103	104	97.5	97.9	85
THP-1 [12]	95.8	93.9	101	105	96.3

cell viability [%], HL-60 [13]
Details	0.001 µM	0.01 µM	0.1 µM	1 µM	10 µM
co-treatment: AZD3965 100 nM	104	99.7	103	102	107
co-treatment: DMSO vehicle	101.7	100.3	104	108	107
co-treatment: GSK2194069 100 nM	98.6	99.3	102	106	91.2
co-treatment: pictilisib 100 nM	106	105.7	110	110	95.5

Details	IC50 (cell viability) [µM]
BV-173 [23]	> 10
HEL [20]	> 10
HL-60 [14]	> 10
K-562 [19]	6.19
KCL-22 [17]	> 10
KG-1 [16]	> 10
KU-812 [22]	> 10
LAMA-84	> 10
ML-2 [21]	> 10
MOLM-13 [15]	> 10
MV4-11	> 10
Mono-Mac-6 [24]	8.61
NOMO-1	> 10
SHI-1 [18]	> 10
THP-1 [25]	> 10

Cc1cc2c(C(C)C)c(O)c(O)c(C=O)c2c(O)c1-c1c(C)cc2c(C(C)C)c(O)c(O)c(C=O)c2c1O [Gossypol]
cell viability [%]
Details	1 nM	10 nM	100 nM	1000 nM	10000 nM
BV-173 [10]	95.8	90	98.8	68.3	0.788
HEL [7]	101	104	101	108	0.902
HL-60 [1]	107	108	111	117	0.854
K-562 [6]	94.6	103	91	110	1.45
KCL-22 [4]	105	101	116	92.7	2.21
KG-1 [3]	95.8	98.9	105	101	5.89
KU-812 [9]	95	94.2	105	86.1	0.646
ML-2 [8]	103	103	105	82.6	0.171
MOLM-13 [2]	104	97.6	95.2	97.1	-0.453
Mono-Mac-6 [11]	94.6	85.5	112	91.8	0.586
SHI-1 [5]	101	106	105	98.2	28
THP-1 [12]	95.3	90.3	96.6	84.4	0.727

cell viability [%], HL-60 [13]
Details	0.001 µM	0.01 µM	0.1 µM	1 µM	10 µM
co-treatment: AZD3965 100 nM	101	106	96.1	102	2.22
co-treatment: DMSO vehicle	101	104	96.3	102	2.19
co-treatment: GSK2194069 100 nM	107	104	90	87.6	2.81
co-treatment: pictilisib 100 nM	104	100	93.97	91.4	1.94

Details	IC50 (cell viability) [µM]
BV-173 [23]	1.6
HEL [20]	3.55
HL-60 [14]	3.87
K-562 [19]	3.67
KCL-22 [17]	2.86
KG-1 [16]	3.57
KU-812 [22]	2.41
LAMA-84	3.34
ML-2 [21]	2.1
MOLM-13 [15]	2.98
MV4-11	3.43
Mono-Mac-6 [24]	2.81
NOMO-1	2.88
SHI-1 [18]	6.25
THP-1 [25]	2.54

From the supplement of paper PMC8671470
